For 28 molecules, Ki results are on record in patent US7851474B2, “Dipiperazinyl ketones and related analogues” (Neurogen Corporation, priority 2005, dated 2010).

SMILES strings stand for the structures. Like-named read-outs stand apart in the source and are kept apart here.

The experiment has as its target T1, chimeric human H3 receptor (Homo sapiens, UniProt Q9Y5N1, E19D).
T1 construct: made in house; host or cells: Sf9 insect cells (baculovirus infection); P2 membrane preparation
The experiment in a line: Chimeric human H3 receptor GTP binding assay (agonist-stimulated GTP-gamma35S binding, Example 7). It is filed as biochemical. Put shortly: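 IC50 values come from non-linear regression of dose-response curves of filter-bound GTP-gamma^35S, counted by scintillation. Membranes were from infected Sf9 cells carrying receptor plus G-protein subunits, 35 μg/tube, with 10 μM GDP present.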

Where [1] appears, read: assay of Example 7, "*" in Ki of Table II, read-out: Ki.
Where [2] appears, read: Table II, "*" in Ki, assay of Example 7, read-out: Ki.
Setting [3] is: Table II "Ki", symbol "*": Ki in the assay of Example 7, read-out: Ki.
[4] abbreviates: Table II, assay of Example 7, "*" in Ki, read-out: Ki.
The mark [5] stands for this setting: assay of Example 7, symbol * in column headed Ki of Table II, read-out: Ki.
The mark [6] stands for this setting: "*" in Ki of Table II, assay of Example 7, read-out: Ki.

T1 sequence (Q9Y5N1 with tags, fused parts or gaps E19D): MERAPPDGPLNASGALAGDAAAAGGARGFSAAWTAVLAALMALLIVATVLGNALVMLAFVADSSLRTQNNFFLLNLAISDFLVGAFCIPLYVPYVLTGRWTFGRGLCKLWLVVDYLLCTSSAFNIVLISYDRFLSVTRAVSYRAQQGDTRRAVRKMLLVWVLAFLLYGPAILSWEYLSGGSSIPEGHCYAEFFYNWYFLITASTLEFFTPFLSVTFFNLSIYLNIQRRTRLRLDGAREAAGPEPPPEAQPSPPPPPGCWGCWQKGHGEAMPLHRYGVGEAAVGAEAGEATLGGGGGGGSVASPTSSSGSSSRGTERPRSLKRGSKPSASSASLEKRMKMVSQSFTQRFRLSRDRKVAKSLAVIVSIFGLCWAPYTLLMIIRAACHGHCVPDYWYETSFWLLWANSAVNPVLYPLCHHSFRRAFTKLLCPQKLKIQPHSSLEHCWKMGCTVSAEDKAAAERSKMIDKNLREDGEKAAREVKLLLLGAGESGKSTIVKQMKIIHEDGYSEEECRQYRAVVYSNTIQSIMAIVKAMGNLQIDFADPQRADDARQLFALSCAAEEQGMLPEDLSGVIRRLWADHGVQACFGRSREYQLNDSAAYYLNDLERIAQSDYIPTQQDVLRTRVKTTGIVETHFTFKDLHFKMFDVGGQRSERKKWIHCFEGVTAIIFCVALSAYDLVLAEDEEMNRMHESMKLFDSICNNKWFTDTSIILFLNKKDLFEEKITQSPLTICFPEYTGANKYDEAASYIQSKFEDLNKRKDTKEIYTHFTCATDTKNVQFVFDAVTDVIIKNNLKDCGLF

In the case of `CC(C)N(C)C(=O)c1ccc(N2CCN(CC(=O)N3CCN(C4CCC4)CC3)CC2)nc1` [Compound 1169, 6-{4-[2-(4-cyclobutylpiperazin-1-yl)-2-oxoethyl]piperazin-1-yl}-N-isopropyl-N-methylnicotinamide], under setting [1], the inhibition constant (Ki) is less than 1000 nM.

As to `Cc1cccc(N2CCN(CC(=O)N3CCN(C4CCC4)CC3)CC2)c1C` [Compound 672, 1-cyclobutyl-4-{[4-(2,3-dimethylphenyl)piperazin-1-yl]acetyl}piperazine], the Ki under setting [2] is less than 1000 nM.

For `COc1ccc(-c2ccc(N3CCN(CC(=O)N4CCN(C5CCC5)CC4)CC3)cc2)c(C)c1` [Compound 779, 1-cyclobutyl-4-{[4-(4′-methoxy-2′-methylbiphenyl-4-yl)piperazin-1-yl]acetyl}piperazine], the Ki under setting [3] is less than 1000 nM.

For the molecule `CN(C(=O)c1cccc(N2CCN(CC(=O)N3CCN(C4CCC4)CC3)CC2)c1)C1CCCCC1` [Compound 1068, 3-{4-[2-(4-cyclobutylpiperazin-1-yl)-2-oxoethyl]piperazin-1-yl}-N-cyclohexyl-N-methylbenzamide], the Ki under setting [4] is less than 1000 nM.

In the case of `O=C(CN1CCN(c2cccc(Br)c2)CC1)N1CCN(C2CCC2)CC1` [Compound 293, 1-(3-bromophenyl)-4-[2-(4-cyclobutylpiperazin-1-yl)-2-oxoethyl]piperazine], the Ki under setting [5] is less than 1000 nM.

For `CC1CCN(C(=O)c2ccc(N3CCN(CC(=O)N4CCN(C5CCC5)CC4)CC3)cc2)CC1` [Compound 649, 1-cyclobutyl-4-[(4-{4-[(4-methylpiperidin-1-yl)carbonyl]phenyl}piperazin-1-yl)acetyl]piperazine], the Ki under setting [2] was less than 1000 nM.

Take `CCC(C)N1CCN(C(=O)CN2CCN(c3ccc(C)c(C)c3)CC2)CC1` (stereo not shown) [Compound 871, 1-sec-butyl-4-{[4-(3,4-dimethylphenyl)piperazin-1-yl]acetyl}piperazine]: the Ki under setting [3] is less than 1000 nM.

For the molecule `CC(C)N1CCN(C(=O)CN2CCN(c3ccccc3)CC2)CC1` [Compound 847, 1-isopropyl-4-[(4-phenylpiperazin-1-yl)acetyl]piperazine], the inhibition constant (Ki) is less than 1000 nM.

Take `C=CCN1CCN(C(=O)CN2CCN(c3ccc(OC)cc3)C(C)C2)CC1` (stereo not shown) [Compound 1102, 4-[2-(4-allylpiperazin-1-yl)-2-oxoethyl]-1-(4-methoxyphenyl)-2-methylpiperazine]: the Ki under setting [4] was less than 1000 nM.

With `Cc1ccc(N2CCN(CC(=O)N3CCN(C4CCCCC4)CC3)CC2)cc1` [Compound 824, 1-cyclohexyl-4-{[4-(4-methylphenyl)piperazin-1-yl]acetyl}piperazine], the Ki under setting [3] is less than 1000 nM.

As to `CC1CN(c2ccc(C(F)(F)F)cn2)CCN1CC(=O)N1CCN(C(C)(C)C)CC1` (stereo not shown) [Compound 451, 1-[2-(4-tert-butylpiperazin-1-yl)-2-oxoethyl]-2-methyl-4-[5-(trifluoromethyl)pyridin-2-yl]piperazine], the Ki under setting [6] was less than 1000 nM.

Turning to `CC(C)NC(=O)c1ccc(N2CCN(CC(=O)N3CCN(C4CCC4)CC3)CC2)nc1` [Compound 1182, 6-{4-[2-(4-cyclobutylpiperazin-1-yl)-2-oxoethyl]piperazin-1-yl}-N-isopropylnicotinamide], the Ki under setting [1] is less than 1000 nM.

As to `O=C(CN1CCC2(CC1)C(=O)Nc1ccccc12)N1CCN(C2CCC2)CC1` [Compound 433, 1′-[2-(4-cyclobutylpiperazin-1-yl)-2-oxoethyl]spiro[indole-3,4′-piperidin]-2(1H)-one], the Ki under setting [5] was less than 1000 nM.

As for `O=C(CN1CCN(c2ccc(-c3cccc(OC(F)(F)F)c3)nn2)CC1)N1CCN(C2CCC2)CC1` [Compound 1024, 3-{4-[2-(4-cyclobutylpiperazin-1-yl)-2-oxoethyl]piperazin-1-yl}-6-[3-(trifluoromethoxy)phenyl} pyridazine], under setting [4], the Ki was less than 1000 nM.

Turning to `COc1ccc2cc(-c3ccc(N4CCN(CC(=O)N5CCN(C6CCC6)CC5)CC4)nn3)ccc2c1` [Compound 1029, 3-{4-[2-(4-cyclobutylpiperazin-1-yl)-2-oxoethyl]piperazin-1-yl}-6-(6-methoxy-2-naphthyl)pyridazine], the Ki under setting [4] was less than 1000 nM.

Take `O=C(CN1CC=C(c2ccccc2)CC1)N1CCN(C2CCC2)CC1` [Compound 656, 1-cyclobutyl-4-[(4-phenyl-3,6-dihydropyridin-1(2H)-yl)acetyl]piperazine]: the Ki under setting [2] is less than 1000 nM.

For the molecule `CCC(C)N1CCN(C(=O)CN2CCN(c3cccc(F)c3)CC2)CC1` (stereo not shown) [Compound 874, 1-sec-butyl-4-{[4-(3-fluorophenyl)piperazin-1-yl]acetyl}piperazine], the Ki under setting [3] was less than 1000 nM.

For the molecule `Cc1ccc(-c2ccc(N3CCN(CC(=O)N4CCN(C5CCC5)CC4)CC3)cc2)cc1` [Compound 784, 1-cyclobutyl-4-{[4-(4′-methylbiphenyl-4-yl)piperazin-1-yl]acetyl}piperazine], the Ki under setting [3] is less than 1000 nM.

Consider `COC(=O)c1ccc(N2CCN(CC(=O)N3CCN(C4CCC4)CC3)CC2)nc1` [Compound 1202, methyl 6-{4-[2-(4-cyclobutylpiperazin-1-yl)-2-oxoethyl]piperazin-1-yl}nicotinate], for which the Ki under setting [1] was less than 1000 nM.

Regarding `CC(=O)N1CCN(CC(=O)N2CCN(C3CCCC3)CC2)CC1` [Compound 485, 1-acetyl-4-[2-(4-cyclopentylpiperazin-1-yl)-2-oxoethyl]piperazine], the inhibition constant (Ki) under setting [6] was less than 1000 nM.

For the molecule `O=C(CN1CCN(c2ccc(C(=O)N3CC=CCC3)cn2)CC1)N1CCN(C2CCC2)CC1` [Compound 609, 1-cyclobutyl-4-({4-[5-(3,6-dihydropyridin-1(2H)-ylcarbonyl)pyridin-2-yl]piperazin-1-yl}acetyl)piperazine], the Ki under setting [2] is less than 1000 nM.

On to `O=C1CCc2cc(N3CCN(CC(=O)N4CCN(C5CCCC5)CC4)CC3)ccc21` [Compound 1160, 5-{4-[2-(4-cyclopentylpiperazin-1-yl)-2-oxoethyl]piperazin-1-yl}indan-1-one], for which the Ki under setting [1] was less than 1000 nM.

For `O=C(CN1CCN(c2ccc(Cl)nn2)CC1)N1CCN(C2CCC2)CC1` [Compound 1087, 3-chloro-6-{4-[2-(4-cyclobutylpiperazin-1-yl)-2-oxoethyl]piperazin-1-yl}pyridazine], the Ki under setting [4] is less than 1000 nM.

In the case of `CCC(C)N1CCN(C(=O)CN2CCN(c3cc(Cl)ccc3OC)CC2)CC1` (stereo not shown) [Compound 884, 1-sec-butyl-4-{[4-(5-chloro-2-methoxyphenyl)piperazin-1-yl]acetyl}piperazine], the Ki under setting [3] was less than 1000 nM.

In the case of `COc1cc(F)c(-c2ccc(N3CCN(CC(=O)N4CCN(C5CCC5)CC4)CC3)cc2)cc1F` [Compound 683, 1-cyclobutyl-4-{[4-(2′,5′-difluoro-4′-methoxybiphenyl-4-yl)piperazin-1-yl]acetyl}piperazine], the inhibitory constant (Ki) under setting [2] was less than 1000 nM.

Consider `CCC(=O)c1ccc(N2CCN(CC(=O)N3CCN(C4CCC4)CC3)CC2)cc1` [Compound 312, 1-(4-{4-[2-(4-cyclobutylpiperazin-1-yl)-2-oxoethyl]piperazin-1-yl}phenyl)propan-1-one], for which, under setting [5], the inhibitory constant (Ki) is less than 1000 nM.

In the case of `CC(=O)c1cnc(N2CCN(CC(=O)N3CCN(C4CCC4)CC3)CC2)nc1` [Compound 269, 1-(2-{4-[2-(4-cyclobutylpiperazin-1-yl)-2-oxoethyl]piperazin-1-yl}pyrimidin-5-yl)ethanone], the inhibition constant (Ki) under setting [5] was less than 1000 nM.

`CC(=O)c1ccc(N2C(=O)C3(CCN(CC(=O)N4CCN(C5CCC5)CC4)CC3)c3ccccc32)cc1` [Compound 332, 1-(4-acetylphenyl)-1′-[2-(4-cyclobutylpiperazin-1-yl)-2-oxoethyl]spiro[indole-3,4′-piperidin]-2(1H)-one]: the Ki under setting [5] is less than 1000 nM.
